Results from ChEMBL document CHEMBL3885881, “DrugMatrix”.

Species: Rattus norvegicus
Assay: DrugMatrix - Regimen: Daily Repeat
Assay type: toxicity, organism-based, Sprague-Dawley
Design: regimen Daily Repeat, gender Male, age 6-8 weeks
Settings: in vivo, po, route oral GAVAGE, […]; for ABSOLUTE BASOPHIL / ABSOLUTE EOSINOPHIL / ABSOLUTE LYMPHOCYTE / ABSOLUTE MONOCYTE / ABSOLUTE SEGMENTED NEUTROPHIL / BASOPHIL / EOSINOPHIL / ERYTHROCYTE COUNT / HEMATOCRIT / HEMOGLOBIN / LEUKOCYTE COUNT / LYMPHOCYTE / MEAN CORPUSCULAR HEMOGLOBIN / MEAN CORPUSCULAR HEMOGLOBIN CONCENTRATION / MEAN CORPUSCULAR VOLUME / MONOCYTE / NEUTROPHIL / NUCLEATED RED BLOOD CELLS / PLATELET COUNT: tissue Blood; for ALANINE AMINOTRANSFERASE / ALBUMIN / ALKALINE PHOSPHATASE / ASPARTATE AMINOTRANSFERASE / BLOOD UREA NITROGEN / CARBON DIOXIDE / CHLORIDE / CHOLESTEROL / CREATINE PHOSPHOKINASE / CREATININE / GLUCOSE / LACTATE DEHYDROGENASE / LIPASE / PHOSPHORUS / POTASSIUM / SODIUM / TOTAL BILIRUBIN / TOTAL PROTEIN / URIC ACID: tissue Plasma
[1] = 0 mg/kg, 72 h, dose level Control, time 3 day
[2] = 0 mg/kg, 120 h, dose level Control, time 5 day
[3] = 30 mg/kg, 72 h, dose level Low, time 3 day
[4] = 30 mg/kg, 120 h, dose level Low, time 5 day

SMILES: COc1ccc2[nH]c([S+]([O-])Cc3ncc(C)c(OC)c3C)nc2c1 (configuration not stated) [OMEPRAZOLE]
- ABSOLUTE BASOPHIL [1]: 0 CELLS/uL
- ABSOLUTE EOSINOPHIL [1]: 70.67 CELLS/uL
- ABSOLUTE LYMPHOCYTE [1]: 12761.5 CELLS/uL
- ABSOLUTE MONOCYTE [1]: 214.17 CELLS/uL
- ABSOLUTE SEGMENTED NEUTROPHIL [1]: 987 CELLS/uL
- BASOPHIL [1]: 0%
- EOSINOPHIL [1]: 0.5%
- ERYTHROCYTE COUNT [1]: 5.61 x10E6/uL
- HEMATOCRIT [1]: 35.22%
- HEMOGLOBIN [1]: 13.57 G/DL
- LEUKOCYTE COUNT [1]: 14.03 x10E3/uL
- LYMPHOCYTE [1]: 91%
- MEAN CORPUSCULAR HEMOGLOBIN [1]: 24.25 pg
- MEAN CORPUSCULAR HEMOGLOBIN CONCENTRATION [1]: 38.52 G/DL
- MEAN CORPUSCULAR VOLUME [1]: 62.9 fL
- MONOCYTE [1]: 1.5%
- NEUTROPHIL [1]: 7%
- NUCLEATED RED BLOOD CELLS [1]: 0 /100WBC
- PLATELET COUNT [1]: 997.5 x10E3/uL
- ALANINE AMINOTRANSFERASE [1]: 66.5 u/L
- ALBUMIN [1]: 3.98 G/DL
- ALKALINE PHOSPHATASE [1]: 350 u/L
- ASPARTATE AMINOTRANSFERASE [1]: 83.83 u/L
- BLOOD UREA NITROGEN [1]: 12.33 mg/dL
- CARBON DIOXIDE [1]: 30.33 mmol/L
- CHLORIDE [1]: 100 MEQ/L
- CHOLESTEROL [1]: 75 mg/dL
- CREATINE PHOSPHOKINASE [1]: 200 u/L
- CREATININE [1]: 0.17 mg/dL
- GLUCOSE [1]: 170 mg/dL
- LACTATE DEHYDROGENASE [1]: 89.33 u/L
- LIPASE [1]: 10.33 u/L
- PHOSPHORUS [1]: 10.88 mg/dL
- POTASSIUM [1]: 6.13 MEQ/L
- SODIUM [1]: 140.53 MEQ/L
- TOTAL BILIRUBIN [1]: 0.2 mg/dL
- TOTAL PROTEIN [1]: 5.67 G/DL
- URIC ACID [1]: 1.6 mg/dL
- ABSOLUTE BASOPHIL [2]: 0 CELLS/uL
- ABSOLUTE EOSINOPHIL [2]: 0 CELLS/uL
- ABSOLUTE LYMPHOCYTE [2]: 9526.67 CELLS/uL
- ABSOLUTE MONOCYTE [2]: 134.17 CELLS/uL
- ABSOLUTE SEGMENTED NEUTROPHIL [2]: 922.5 CELLS/uL
- BASOPHIL [2]: 0%
- EOSINOPHIL [2]: 0%
- ERYTHROCYTE COUNT [2]: 5.58 x10E6/uL
- HEMATOCRIT [2]: 34.78%
- HEMOGLOBIN [2]: 13.5 G/DL
- LEUKOCYTE COUNT [2]: 10.58 x10E3/uL
- LYMPHOCYTE [2]: 90.17%
- MEAN CORPUSCULAR HEMOGLOBIN [2]: 24.27 pg
- MEAN CORPUSCULAR HEMOGLOBIN CONCENTRATION [2]: 38.82 G/DL
- MEAN CORPUSCULAR VOLUME [2]: 62.48 fL
- MONOCYTE [2]: 1.17%
- NEUTROPHIL [2]: 8.67%
- NUCLEATED RED BLOOD CELLS [2]: 0.17 /100WBC
- PLATELET COUNT [2]: 807.17 x10E3/uL
- ALANINE AMINOTRANSFERASE [2]: 66.83 u/L
- ALBUMIN [2]: 3.73 G/DL
- ALKALINE PHOSPHATASE [2]: 286.17 u/L
- ASPARTATE AMINOTRANSFERASE [2]: 142.33 u/L
- BLOOD UREA NITROGEN [2]: 14.67 mg/dL
- CARBON DIOXIDE [2]: 25.5 mmol/L
- CHLORIDE [2]: 89.17 MEQ/L
- CHOLESTEROL [2]: 75.17 mg/dL
- CREATINE PHOSPHOKINASE [2]: 310.67 u/L
- CREATININE [2]: 0.2 mg/dL
- GLUCOSE [2]: 153 mg/dL
- LACTATE DEHYDROGENASE [2]: 1594 u/L
- LIPASE [2]: 14.83 u/L
- PHOSPHORUS [2]: 11.28 mg/dL
- POTASSIUM [2]: 8.46 MEQ/L
- SODIUM [2]: 126.88 MEQ/L
- TOTAL BILIRUBIN [2]: 0.37 mg/dL
- TOTAL PROTEIN [2]: 5.53 G/DL
- URIC ACID [2]: 1.52 mg/dL
- ABSOLUTE BASOPHIL [3]: 0 CELLS/uL
- ABSOLUTE EOSINOPHIL [3]: 80 CELLS/uL
- ABSOLUTE LYMPHOCYTE [3]: 11444.67 CELLS/uL
- ABSOLUTE MONOCYTE [3]: 85.33 CELLS/uL
- ABSOLUTE SEGMENTED NEUTROPHIL [3]: 690 CELLS/uL
- BASOPHIL [3]: 0%
- EOSINOPHIL [3]: 0.67%
- ERYTHROCYTE COUNT [3]: 5.41 x10E6/uL
- HEMATOCRIT [3]: 34.37%
- HEMOGLOBIN [3]: 13.77 G/DL
- LEUKOCYTE COUNT [3]: 12.3 x10E3/uL
- LYMPHOCYTE [3]: 93%
- MEAN CORPUSCULAR HEMOGLOBIN [3]: 25.47 pg
- MEAN CORPUSCULAR HEMOGLOBIN CONCENTRATION [3]: 40.07 G/DL
- MEAN CORPUSCULAR VOLUME [3]: 63.53 fL
- MONOCYTE [3]: 0.67%
- NEUTROPHIL [3]: 5.67%
- NUCLEATED RED BLOOD CELLS [3]: 0.67 /100WBC
- PLATELET COUNT [3]: 1225.33 x10E3/uL
- ALANINE AMINOTRANSFERASE [3]: 59.67 u/L
- ALBUMIN [3]: 4.03 G/DL
- ALKALINE PHOSPHATASE [3]: 348.67 u/L
- ASPARTATE AMINOTRANSFERASE [3]: 77.33 u/L
- BLOOD UREA NITROGEN [3]: 12 mg/dL
- CARBON DIOXIDE [3]: 29.33 mmol/L
- CHLORIDE [3]: 101 MEQ/L
- CHOLESTEROL [3]: 72.33 mg/dL
- CREATINE PHOSPHOKINASE [3]: 303.67 u/L
- CREATININE [3]: 0.14 mg/dL
- GLUCOSE [3]: 175.33 mg/dL
- LACTATE DEHYDROGENASE [3]: 111 u/L
- LIPASE [3]: 10.33 u/L
- PHOSPHORUS [3]: 12.23 mg/dL
- POTASSIUM [3]: 6.24 MEQ/L
- SODIUM [3]: 143.63 MEQ/L
- TOTAL BILIRUBIN [3]: 0.17 mg/dL
- TOTAL PROTEIN [3]: 5.8 G/DL
- URIC ACID [3]: 1.57 mg/dL
- ABSOLUTE BASOPHIL [4]: 0 CELLS/uL
- ABSOLUTE EOSINOPHIL [4]: 0 CELLS/uL
- ABSOLUTE LYMPHOCYTE [4]: 8312.33 CELLS/uL
- ABSOLUTE MONOCYTE [4]: 87.33 CELLS/uL
- ABSOLUTE SEGMENTED NEUTROPHIL [4]: 233.67 CELLS/uL
- BASOPHIL [4]: 0%
- EOSINOPHIL [4]: 0%
- ERYTHROCYTE COUNT [4]: 6.01 x10E6/uL
- HEMATOCRIT [4]: 36%
- HEMOGLOBIN [4]: 13.93 G/DL
- LEUKOCYTE COUNT [4]: 8.63 x10E3/uL
- LYMPHOCYTE [4]: 96.33%
- MEAN CORPUSCULAR HEMOGLOBIN [4]: 23.2 pg
- MEAN CORPUSCULAR HEMOGLOBIN CONCENTRATION [4]: 38.73 G/DL
- MEAN CORPUSCULAR VOLUME [4]: 59.9 fL
- MONOCYTE [4]: 1%
- NEUTROPHIL [4]: 2.67%
- NUCLEATED RED BLOOD CELLS [4]: 0 /100WBC
- PLATELET COUNT [4]: 1213.33 x10E3/uL
- ALANINE AMINOTRANSFERASE [4]: 65 u/L
- ALBUMIN [4]: 4.2 G/DL
- ALKALINE PHOSPHATASE [4]: 440.33 u/L
- ASPARTATE AMINOTRANSFERASE [4]: 88.67 u/L
- BLOOD UREA NITROGEN [4]: 14 mg/dL
- CARBON DIOXIDE [4]: 30 mmol/L
- CHLORIDE [4]: 98.67 MEQ/L
- CHOLESTEROL [4]: 69 mg/dL
- CREATINE PHOSPHOKINASE [4]: 217.67 u/L
- CREATININE [4]: 0.27 mg/dL
- GLUCOSE [4]: 163.33 mg/dL
- LACTATE DEHYDROGENASE [4]: 152.67 u/L
- LIPASE [4]: 11.67 u/L
- PHOSPHORUS [4]: 11.43 mg/dL
- POTASSIUM [4]: 5.8 MEQ/L
- SODIUM [4]: 144.67 MEQ/L
- TOTAL BILIRUBIN [4]: 0.17 mg/dL
- TOTAL PROTEIN [4]: 6.1 G/DL
- URIC ACID [4]: 1 mg/dL
